The record followed here is EP2970215B1, “PYRROLIDINE DERIVATIVES, PHARMACEUTICAL COMPOSITIONS CONTAINING THEM, AND THEIR USE IN THERAPY” (AbbVie Deutschland GmbH & Co. KG, priority 2013, dated 2014).

The target of the assay is T1, human GlyT1c transporter (Homo sapiens, UniProt P48067).
T1 construct: expressed in transfected cells; host or cells: CHO cells (recombinant; line hGlyT1c_5_CHO is named for the uptake assay)
T1 sequence (P48067 1-706): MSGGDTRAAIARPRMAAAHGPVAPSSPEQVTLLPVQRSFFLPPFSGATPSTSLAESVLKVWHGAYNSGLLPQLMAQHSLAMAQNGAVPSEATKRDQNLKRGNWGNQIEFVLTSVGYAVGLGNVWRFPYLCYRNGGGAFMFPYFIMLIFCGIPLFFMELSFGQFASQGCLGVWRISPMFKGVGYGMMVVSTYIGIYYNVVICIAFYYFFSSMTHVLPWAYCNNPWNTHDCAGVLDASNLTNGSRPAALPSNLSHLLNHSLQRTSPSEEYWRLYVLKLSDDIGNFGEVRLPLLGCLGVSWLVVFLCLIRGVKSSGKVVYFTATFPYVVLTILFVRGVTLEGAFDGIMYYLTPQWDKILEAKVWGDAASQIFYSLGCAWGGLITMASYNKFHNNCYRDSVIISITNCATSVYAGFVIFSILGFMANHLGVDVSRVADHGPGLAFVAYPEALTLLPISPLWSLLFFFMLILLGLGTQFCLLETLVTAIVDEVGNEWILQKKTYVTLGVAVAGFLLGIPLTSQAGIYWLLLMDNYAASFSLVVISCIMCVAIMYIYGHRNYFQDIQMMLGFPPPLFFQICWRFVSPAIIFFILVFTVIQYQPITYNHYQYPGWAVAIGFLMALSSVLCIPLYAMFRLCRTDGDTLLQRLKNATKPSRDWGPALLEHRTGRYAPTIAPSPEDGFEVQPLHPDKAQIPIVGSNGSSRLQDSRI
Description: Radioligand binding assay using recombinant CHO cell membranes expressing human GlyT1. From the text:
2. Radioligand binding assays using recombinant CHO cell membranes expressing human GlyT1: […]

The mark [1] stands for this setting: radioligand binding to human GlyT1c transporter-expressing membranes.

In the case of `CCOc1cc(N[C@H]2CN(S(=O)(=O)c3cn(C)cn3)C[C@@H]2c2ccc(F)cc2)ncn1` [Example 715, 6-ethoxy-N-{(3R,4S)-4-(4-fluorophenyl)-1-[(1-methyl-1H-imidazol-4-yl)sulfonyl]pyrrolidin-3-yl}pyrimidin-4-amine], the Ki under setting [1] is not above 1000 nM.

Take `Cn1cnc(S(=O)(=O)N2C[C@@H](Nc3cccc(Cl)c3)[C@H](OCC3CC3)C2)c1` (relative stereo) [Example 530, Trans-N-(3-chlorophenyl)-4-(cyclopropylmethoxy)-1-[(1-methyl-1H-imidazol-4-yl)sulfonyl]pyrrolidin-3-amine]: the inhibitory constant (Ki) under setting [1] was not above 1000 nM.

Regarding `Cn1cnc(S(=O)(=O)N2C[C@@H](C(=O)Nc3cc(C(F)(F)F)ccn3)[C@H](c3ccc(F)cc3)C2)c1` (relative stereo) [Example 369, Trans-4-(4-fluorophenyl)-1-[(1-methyl-1H-imidazol-4-yl)sulfonyl]-N-[4-(trifluoromethyl)pyridin-2-yl]pyrrolidine-3-carboxamide], the inhibitory constant (Ki) under setting [1] was not above 1000 nM.

`CCOCCCNC[C@@H]1CN(S(=O)(=O)c2cn(C)cn2)C[C@H]1c1ccc(F)cc1` (relative stereo) [Example 592, 3-ethoxy-N-({trans-4-(4-fluorophenyl)-1-[(1-methyl-1H-imidazol-4-yl)sulfonyl]pyrrolidin-3-yl}methyl)propan-1-amine]: the Ki under setting [1] is not above 10000 nM.

`Cc1ccc(-c2ncc(CN[C@H]3CN(S(=O)(=O)c4cn(C)cn4)C[C@@H]3c3ccccc3)s2)cc1` [Example 572, (3R,4S)-1-[(1-methyl-1H-imidazol-4-yl)sulfonyl]-N-{[2-(4-methylphenyl)-1,3-thiazol-5-yl]methyl}-4-phenylpyrrolidin-3-amine]: the Ki under setting [1] is not above 1000 nM.

As for `CCCCCCNC1CN(S(=O)(=O)c2cn(C)cn2)CC1[C@H]1CCCO1` (stereo partly drawn) [Example 820, N-Hexyl-1-[(1-methyl-1H-imidazol-4-yl)sulfonyl]-4-[(2R)-tetrahydrofuran-2-yl]pyrrolidin-3-amine], the Ki (radioligand binding, recombinant CHO cell membranes expressing human GlyT1c) was not above 10000 nM.

In the case of `Cn1cnc(S(=O)(=O)N2C[C@@H](Nc3ccc(Cl)c(Cl)c3)[C@H](c3cccc(F)c3)C2)c1` (relative stereo) [Example 192, trans-N-(3,4-dichlorophenyl)-4-(3-fluorophenyl)-1-[(1-methyl-1H-imidazol-4-yl)sulfonyl]pyrrolidin-3-amine], under setting [1], the Ki was not above 1000 nM.

In the case of `Cc1nc(C)c(S(=O)(=O)N2CC(Nc3ccc(F)c(F)c3)C(c3ccccc3)C2)s1` (centres unmarked) [Example 474, N-(3,4-difluorophenyl)-1-[(2,4-dimethyl-1,3-thiazol-5-yl)sulfonyl]-4-phenylpyrrolidin-3-amine], the inhibition constant (Ki) under setting [1] is not above 10000 nM.

`O=C(N[C@@H]1CN(S(=O)(=O)c2cn[nH]c2)C[C@H]1c1ccccc1)c1cccc(C(F)(F)F)c1Cl` (relative stereo) [Example 46, 2-chloro-N-[trans-4-phenyl-1-(1H-pyrazol-4-ylsulfonyl)pyrrolidin-3-yl]-3-(trifluoromethyl)benzamide]: under setting [1], the Ki is not below 10000 nM.

Take `Cn1cnc(S(=O)(=O)N2C[C@@H](Nc3cc(C(F)(F)F)ccn3)[C@H](C3CCCCO3)C2)c1` (relative stereo) [Example 682, N-{Trans-1-[(1-methyl-1H-imidazol-4-yl)sulfonyl]-4-[tetrahydro-2H-pyran-2-yl]pyrrolidin-3-yl}-4-(trifluoromethyl)pyridin-2-amine]: under setting [1], the Ki is not above 100 nM.

In the case of `Cn1cnc(S(=O)(=O)N2C[C@@H](NCc3ccc(Cl)cc3Cl)[C@H](c3ccccc3F)C2)c1` (relative stereo) [Example 282, trans-N-(2,4-dichlorobenzyl)-4-(2-fluorophenyl)-1-[(1-methyl-1H-imidazol-4-yl)sulfonyl]pyrrolidin-3-amine], the Ki under setting [1] was not above 100 nM.

With `Cc1csc(S(=O)(=O)N2CC(Nc3ccc(F)c(F)c3)C(c3ccccc3)C2)c1` (centres unmarked) [Example 484, N-(3,4-difluorophenyl)-1-[(4-methylthiophen-2-yl)sulfonyl]-4-phenylpyrrolidin-3-amine], the Ki under setting [1] was not above 10000 nM.

With `COCCCCN[C@H]1CN(S(=O)(=O)c2cn(C)cn2)C[C@@H]1c1ccccc1` [Example 647, (3R,4S)-N-(4-methoxybutyl)-1-[(1-methyl-1H-imidazol-4-yl)sulfonyl]-4-phenylpyrrolidin-3-amine], the Ki under setting [1] was not above 10000 nM.

In the case of `Cn1cnc(S(=O)(=O)N2C[C@H](Nc3cc(OCC(F)(F)F)c(Cl)cn3)[C@@H](c3ccc(F)cc3)C2)c1` [Example 806, 5-chloro-N-{(3R,4S)-4-(4-fluorophenyl)-1-[(1-methyl-1H-imidazol-4-yl)sulfonyl]pyrrolidin-3-yl}-4-(2,2,2-trifluoroethoxy)pyridin-2-amine], the Ki under setting [1] is not above 10 nM.
